Experimental data: patent publication US9211310B2, “Use of a Chinese medicine composition in preparing medicaments for treating secondary prevention of myocardial infarction” (TASLY PHARMACEUTICAL GROUP CO., LTD, priority 2010, dated 2015)

Tested on: patients after acute myocardial infarction
Test: Life quality, Seattle Angina Questionnaire (SAQ), same clinical trial
Format: in vivo, human
Conditions: PP
Excerpt: 3508 patients who were in accordance with the diagnostic standards of AMI for 28 days to 2 years and differentiated as Qi deficiency and blood stagnation syndrome by TCM were studied. 0.5 g Chinese medicine composition prepared by the method of EXAMPLE 1 (Coded as QSYQ) was administrated half an hour after meal, 3 times per day.
There were 19 questions in the Seattle angina questionnaire (SAQ), including 5 parts: physical limitation (PL), anginal stability (AS), anginal frequency (AF), treatment satisfaction (TS) and disease perception (DP). After being given necessary explanation by doctors, the questions were answered independently by patients.
They included the overall survival time, angina pectoris score, TCM symptom score and life quality score, where angina pectoris score, TCM symptom score and life quality score were evaluated at randomization, in 1st, 3rd, 6th, 9th, 12th month after treatment and 18th month after follow-up.
All evaluation results of SAQ were described during the period of observation, and Wilcoxon rank sum test was used for inter-group comparison.
The evaluation results in the SAQ were depicted in different observations, and inter-group comparison was tested by Wilcoxon Rank-sum test.

CC(=O)Oc1ccccc1C(=O)O [Control group, aspirine]
SAQ 6th question, Highly consent: % of patients (1 month after treatment): (17.86%)
SAQ 6th question, Highly consent: number of patients (1 month after treatment): 266
SAQ 6th question, Mostly dissatisfied: % of patients (1 month after treatment): (4.37%)
SAQ 6th question, Mostly dissatisfied: number of patients (1 month after treatment): 65
SAQ 6th question, Mostly satisfied: % of patients (1 month after treatment): (47.88%)
SAQ 6th question, Mostly satisfied: number of patients (1 month after treatment): 713
SAQ 6th question, Partly satisfied: % of patients (1 month after treatment): (29.68%)
SAQ 6th question, Partly satisfied: number of patients (1 month after treatment): 442
SAQ 7th question, Dissatisfied: % of patients (1 month after treatment): (0.13%)
SAQ 7th question, Dissatisfied: number of patients (1 month after treatment): 2
SAQ 7th question, Highly satisfied: % of patients (1 month after treatment): (23.40%)
SAQ 7th question, Highly satisfied: number of patients (1 month after treatment): 348
SAQ 7th question, Mostly dissatisfied: % of patients (1 month after treatment): (3.36%)
SAQ 7th question, Mostly dissatisfied: number of patients (1 month after treatment): 50
SAQ 7th question, Mostly satisfied: % of patients (1 month after treatment): (48.69%)
SAQ 7th question, Mostly satisfied: number of patients (1 month after treatment): 724
SAQ 7th question, Partly satisfied: % of patients (1 month after treatment): (24.41%)
SAQ 7th question, Partly satisfied: number of patients (1 month after treatment): 363
SAQ Question 1-1 Mildly limited, number of patients (1 month after treatment): 21
SAQ Question 1-1 Mildly limited, percent of patients (1 month after treatment): (1.41%)
SAQ Question 1-1 Moderately limited, number of patients (1 month after treatment): 9
SAQ Question 1-1 Moderately limited, percent of patients (1 month after treatment): (0.60%)
SAQ Question 1-1 Not limited, number of patients (1 month after treatment): 1375
SAQ Question 1-1 Not limited, percent of patients (1 month after treatment): (92.41%)
SAQ Question 1-1 Other reasons, number of patients (1 month after treatment): 2
SAQ Question 1-1 Other reasons, percent of patients (1 month after treatment): (0.13%)
SAQ Question 1-1 Severely limited, number of patients (1 month after treatment): 1
SAQ Question 1-1 Severely limited, percent of patients (1 month after treatment): (0.07%)
SAQ Question 1-1 Slightly limited, number of patients (1 month after treatment): 80
SAQ Question 1-1 Slightly limited, percent of patients (1 month after treatment): (5.38%)
SAQ Question 1-2 Mildly limited, number of patients (1 month after treatment): 30
SAQ Question 1-2 Mildly limited, percent of patients (1 month after treatment): (2.02%)
SAQ Question 1-2 Moderately limited, number of patients (1 month after treatment): 10
SAQ Question 1-2 Moderately limited, percent of patients (1 month after treatment): (0.67%)
SAQ Question 1-2 Not limited, number of patients (1 month after treatment): 1345
SAQ Question 1-2 Not limited, percent of patients (1 month after treatment): (90.39%)
SAQ Question 1-2 Other reasons, number of patients (1 month after treatment): 4
SAQ Question 1-2 Other reasons, percent of patients (1 month after treatment): (0.27%)
SAQ Question 1-2 Severely limited, number of patients (1 month after treatment): 0
SAQ Question 1-2 Severely limited, percent of patients (1 month after treatment): (0.00%)
SAQ Question 1-2 Slightly limited, number of patients (1 month after treatment): 99
SAQ Question 1-2 Slightly limited, percent of patients (1 month after treatment): (6.65%)
SAQ Question 1-6: Mildly limited, patients (%) (1 month after treatment): (18.24%)
SAQ Question 1-6: Moderately limited, patients (%) (1 month after treatment): (15.53%)
SAQ Question 1-6: Not limited, patients (%) (1 month after treatment): (29.08%)
SAQ Question 1-6: Other reasons, patients (%) (1 month after treatment): (0.88%)
SAQ Question 1-6: Severely limited, patients (%) (1 month after treatment): (4.75%)
SAQ Question 1-6: Slightly limited, patients (%) (1 month after treatment): (31.53%)
SAQ Question 1-7: Mildly limited, patients (%) (1 month after treatment): (23.85%)
SAQ Question 1-7: Moderately limited, patients (%) (1 month after treatment): (17.55%)
SAQ Question 1-7: Not limited, patients (%) (1 month after treatment): (12.34%)
SAQ Question 1-7: Other reasons, patients (%) (1 month after treatment): (3.08%)
SAQ Question 1-7: Severely limited, patients (%) (1 month after treatment): (17.75%)
SAQ Question 1-7: Slightly limited, patients (%) (1 month after treatment): (25.43%)
SAQ Question 1-8: Mildly limited, patients (%) (1 month after treatment): (24.83%)
SAQ Question 1-8: Moderately limited, patients (%) (1 month after treatment): (20.79%)
SAQ Question 1-8: Not limited, patients (%) (1 month after treatment): (8.28%)
SAQ Question 1-8: Other reasons, patients (%) (1 month after treatment): (2.87%)
SAQ Question 1-8: Severely limited, patients (%) (1 month after treatment): (22.37%)
SAQ Question 1-8: Slightly limited, patients (%) (1 month after treatment): (20.86%)
8th question: Dissatisfied, patients (%) (3 months after treatment): (0.07%)
8th question: Highly satisfied, patients (%) (3 months after treatment): (19.43%)
8th question: Mostly dissatisfied, patients (%) (3 months after treatment): (2.85%)
8th question: Mostly satisfied, patients (%) (3 months after treatment): (52.31%)
8th question: Partly satisfied, patients (%) (3 months after treatment): (25.34%)
9th question: Few, patients (%) (3 months after treatment): (31.56%)
9th question: Mild, patients (%) (3 months after treatment): (32.99%)
9th question: Moderate, patients (%) (3 months after treatment): (15.51%)
9th question: Severe, patients (%) (3 months after treatment): (0.95%)
9th question: Uneffective, patients (%) (3 months after treatment): (18.98%)
10th question: Dissatisfied, patients (%) (3 months after treatment): (20.88%)
10th question: Highly satisfied, patients (%) (3 months after treatment): (4.90%)
10th question: Mostly dissatisfied, patients (%) (3 months after treatment): (22.38%)
10th question: Mostly satisfied, patients (%) (3 months after treatment): (23.47%)
10th question: Partly satisfied, patients (%) (3 months after treatment): (28.37%)
11th question: Continuously worried, patients (%) (3 months after treatment): (4.62%)
11th question: No worried, patients (%) (3 months after treatment): (4.76%)
11th question: Occasionally worried, patients (%) (3 months after treatment): (41.47%)
